Data reported in ChEMBL document CHEMBL1147531, “Farnesyloxycoumarins, a new class of squalene-hopene cyclase inhibitors” (Bioorg Med Chem Lett, 2004).

How the values were obtained:
[1] = biological target: T1, Squalene--hopene cyclase (Alicyclobacillus acidocaldarius subsp. acidocaldarius (strain ATCC27009 / DSM 446 / 104-1A) (Bacillus acidocaldarius)) (UniProt P33247); assay: Inhibitory activity against squalene hopene cyclase from Alicyclobacillus acidocaldarius expressed in Escherichia coli at a concentration of 100 uM
T1 sequence (whole entry): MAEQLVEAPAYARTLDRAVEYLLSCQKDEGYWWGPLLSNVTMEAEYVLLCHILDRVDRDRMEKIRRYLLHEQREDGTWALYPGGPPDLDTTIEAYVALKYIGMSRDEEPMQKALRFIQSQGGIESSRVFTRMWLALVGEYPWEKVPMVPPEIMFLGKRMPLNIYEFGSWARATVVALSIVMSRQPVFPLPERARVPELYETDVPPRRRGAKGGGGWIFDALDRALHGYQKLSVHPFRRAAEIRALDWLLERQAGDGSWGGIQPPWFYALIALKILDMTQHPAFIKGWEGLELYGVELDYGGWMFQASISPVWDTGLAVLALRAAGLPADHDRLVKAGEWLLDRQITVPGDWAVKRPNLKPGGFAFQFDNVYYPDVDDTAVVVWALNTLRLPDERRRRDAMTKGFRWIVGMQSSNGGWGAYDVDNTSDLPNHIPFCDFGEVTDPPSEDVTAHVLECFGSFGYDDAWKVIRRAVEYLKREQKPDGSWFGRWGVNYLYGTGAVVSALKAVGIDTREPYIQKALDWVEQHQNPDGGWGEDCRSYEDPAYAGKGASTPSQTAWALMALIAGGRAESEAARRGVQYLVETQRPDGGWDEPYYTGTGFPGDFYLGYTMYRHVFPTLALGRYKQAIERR

Squalene--hopene cyclase [2] = biological target: T2, Squalene--hopene cyclase (Alicyclobacillus acidocaldarius subsp. acidocaldarius (strain ATCC27009 / DSM 446 / 104-1A) (Bacillus acidocaldarius), UniProt P33247); assay: Inhibitory activity against squalene hopene cyclase from Alicyclobacillus acidocaldarius expressed in Escherichia coli
T2 sequence (P33247 whole entry): T1 sequence (whole entry)

Squalene--hopene cyclase [3] = biological target: T2, Squalene--hopene cyclase; assay: Inhibitory activity against squalene hopene cyclase from Alicyclobacillus acidocaldarius expressed in Escherichia coli at a concentration of 100 uM; n.a. = not active
[4] = biological target: T1, Squalene--hopene cyclase (Alicyclobacillus acidocaldarius subsp. acidocaldarius (strain ATCC27009 / DSM 446 / 104-1A) (Bacillus acidocaldarius)); assay: IInhibitory activity against squalene hopene cyclase from Alicyclobacillus acidocaldarius expressed in Escherichia coli at a concentration of 100 uM

SMILES	IC50 (Squalene--hopene cyclase [2]) [µM]	IC50 (Squalene--hopene cyclase [3])	further results
C/C(=C\COc1cc(=O)oc2ccccc12)CC/C=C(\C)CCC1OC1(C)C (centres undefined)			inhibition [1]: 40%
C/C(=C\COc1ccc2ccc(=O)oc2c1)CCC1OC1(C)CCC1OC1(C)C (centres undefined)	1.5		
CC(=O)Oc1ccc2c(OC(C)=O)c(C/C=C(\C)CCC3OC3(C)CCC3OC3(C)C)c(=O)oc2c1 (centres undefined)			inhibition [4]: 38%
CC(C)=CCC/C(C)=C/CC/C(C)=C/COc1cc(=O)oc2ccccc12		Not Active	
C/C(=C\COc1cc2oc(=O)ccc2cc1O)CC/C=C(\C)CCC1OC1(C)C (centres undefined)	67		
CC(=O)Oc1cc2ccc(=O)oc2cc1OC/C=C(\C)CCC1OC1(C)CCC1OC1(C)C (centres undefined)			inhibition [1]: 7%
CC(=O)Oc1cc2ccc(=O)oc2cc1OC/C=C(\C)CC/C=C(\C)CCC1OC1(C)C (centres undefined)			inhibition [1]: 46%
C=C1CC[C@@H]2C(C)(C)[C@H](O)CC[C@@]2(C)[C@@H]1COc1ccc2ccc(=O)oc2c1		Not Active	
CC1(C)[C@H]2CC[C@](C)(O)[C@@H](COc3ccc4ccc(=O)oc4c3)[C@]2(C)CC[C@@H]1O		Not Active	
CC(=O)O[C@H]1CC[C@]2(C)[C@H](CC[C@](C)(O)[C@H]2COc2ccc3ccc(=O)oc3c2)C1(C)C		Not Active	
C/C(=C\COc1ccc2ccc(=O)oc2c1)CC/C=C(\C)CCC1OC1(C)C (centres undefined)	2.5		
CC(C)=CCC/C(C)=C/CC/C(C)=C/Cc1c(O)c2ccccc2oc1=O	90		

Further lines, with some results ahead:

IC50 (Squalene--hopene cyclase [2]) [µM]	IC50 (Squalene--hopene cyclase [3])	SMILES	further results
	Not Active	CC1(C)C(=O)CC[C@]2(C)[C@@H]1CC[C@](C)(O)[C@H]2COc1ccc2ccc(=O)oc2c1	
7		C/C(=C\COc1ccc2ccc(=O)oc2c1)CC[C@H]1C2(C)CC[C@@H](O2)C1(C)C (single isomer, unassigned) [FARNESIFEROL C]	
70		CC(C)=CCC/C(C)=C/CC/C(C)=C/COc1ccc2ccc(=O)oc2c1 [UMBELLIPRENIN]	
100		CC(=O)Oc1ccc2c(OC(C)=O)c(C/C=C(\C)CC/C=C(\C)CCC3OC3(C)C)c(=O)oc2c1 (centres undefined)	
65		C/C(=C\COc1ccc2ccc(=O)oc2c1)CC/C=C(\C)CCC(O)C(C)(C)O (centres undefined)	
	Not Active	C=C1CC[C@@H]2C(C)(C)C(=O)CC[C@@]2(C)[C@@H]1COc1ccc2ccc(=O)oc2c1	
	Not Active	CC(C)=CCC/C(C)=C/CC/C(C)=C/Cc1c(O)oc2cc(O)ccc2c1=O	
